# Data from EP0533241A2, “Substituted alkyl derivatives of piperazinylcamphorsulfonyl oxytocin antagonists” (MERCK & CO. INC., priority 1991, dated 1993).
# Target: T1, uterine OT receptors (Rattus norvegicus, UniProt P70536)
# T1 sequence (P70536 1-388): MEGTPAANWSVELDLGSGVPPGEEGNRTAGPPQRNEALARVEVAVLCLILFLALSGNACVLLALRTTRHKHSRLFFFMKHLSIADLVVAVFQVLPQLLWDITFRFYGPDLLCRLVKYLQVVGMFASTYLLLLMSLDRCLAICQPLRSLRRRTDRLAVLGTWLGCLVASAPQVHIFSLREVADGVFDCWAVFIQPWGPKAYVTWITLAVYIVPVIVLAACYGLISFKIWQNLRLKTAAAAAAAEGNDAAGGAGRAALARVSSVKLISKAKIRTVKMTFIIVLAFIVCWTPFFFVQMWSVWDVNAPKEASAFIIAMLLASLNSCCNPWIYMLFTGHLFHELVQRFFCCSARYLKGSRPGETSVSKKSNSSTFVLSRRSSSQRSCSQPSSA
# Assay: [3H]Oxytocin radioligand binding competition assay, crude membrane preparation of uteri from DES-treated rats
# Conditions: for IC50: 1 nM [3H]OT, 60 minutes, 22 °C, rat uterine membranes
# Experimental: The high affinity binding of [^3H] Oxytocin (OT)([tyrosyl, 3,5-[^3H]OT; 30-60 Ci/mmol; New England Nuclear. Boston, MA) to uterine OT receptors was based on an assay*using a crude membrane preparation of uteri taken from diethylstilbestrol dipropionate (DES)-treated (0.3 mg/kg, ip; 18-24) rats. Competition studies were conducted at equilibrium (60 minutes; 22 ° C) using 1 NM[^3H]OT in the following assay buffer: 50 mM Tris-HCI, 5 mM MgCl2, and 0.1% BSA, pH 7.4. Nonspecific binding (10% of the total binding) was determined using 1µM unlabeled OT and the binding reaction was terminated by filtration through glass fiber filters using a cell harvester (model 7019, Skatron, Inc., Sterling, VA).
IC50 [nM],Compound,further results
120,"COC(=O)C1CC2CCC1(CS(=O)(=O)N1CCN(c3ccccc3C)CC1)C2(C)C (stereo not drawn) [Example 23, 1-((7,7-DIMETHYL-2-ENDO-METHOXYCARBONYL-BICYCLO (2.2.1)HEPTAN-1-YL)METHANESULFONYL)-4-(2-METHYLPHENYL)PIPERAZINE]",
260,Cc1ccccc1N1CCN(S(=O)(=O)CC23CCC(CC2C(=O)O)C3(C)C)CC1 (centres unmarked) [Example 24],
,"CC(=O)NC(CC=C1CC2CCC1(CS(=O)(=O)N1CCN(c3ccccc3C)CC1)C2(C)C)C(=O)O (centres unmarked) [Example 29, 1-((7,7-DIMETHYL-2-(3-ACETAMIDO-3-CARBOXY) PROPYLIDINE-BICYCLO(2.2.1)HEPTAN-1-YL) METHANESULFONYL)-4-(2-METHYLPHENYL)PIPERAZINE]","inhibition at 1 µM (read-out: inhibition at 1,000 nM): 78%"
1.2,Cc1ccccc1N1CCN(S(=O)(=O)CC23CCC(CC2NC(=O)C(CCS(C)(=O)=O)NC(=O)Cc2c[nH]cn2)C3(C)C)CC1 (centres unmarked) [Example 37],
5.4,Cc1ccccc1N1CCN(S(=O)(=O)CC23CCC(CC2NC(=O)C(CCS(C)(=O)=O)N(C)C)C3(C)C)CC1 (centres unmarked) [Example 38],
6.3,Cc1ccccc1N1CCN(S(=O)(=O)CC23CCC(CC2N(C)C(=O)C(N)CCS(C)(=O)=O)C3(C)C)CC1 (centres unmarked) [Example 41],
9.2,Cc1ccccc1N1CCN(S(=O)(=O)CC23CCC(CC2N(C)C(=O)C(CCS(C)(=O)=O)N(C)C)C3(C)C)CC1 (centres unmarked) [Example 42],
,CCOC(=O)CN1CCCC(C(=O)NC(C)CC2(O)CC3CCC2(CS(=O)(=O)N2CCN(c4ccccc4C)CC2)C3(C)C)C1 (centres unmarked) [Example 57],inhibition at 100 nM (at 100 nM): 66% inhibition at 100 nM
